Here are results for 14 molecules from US12344611B2, “Bridged cycloformylpyridine derivatives and uses thereof” (BroadenBio Co., Ltd., priority 2019, dated 2025).

One experiment deals with HuH-7 hepatoma cells. Description: In vitro cell proliferation assay (CellTiter-Glo, CTG), HuH-7. In kind it is cell-based. The note with it: Homo sapiens, Huh-7, 96 h, HuH-7 cells. As to the method: (§1) In Vitro Cell Proliferation Assay of FGFR4 (CellTiter-Glo Luminescent Cell Viability Assay, CTG Assay)
(§2) Hep 3B hepatoma cells were purchased from Cell Resource Center of Peking Union College, and HuH-7 hepatoma cells were purchased from Shanghai Biological Technology Co., Ltd. enzyme research. The cells were prepared at a concentration of 3×10^4/mL, which was then added with 100 μL to each well of a 96-well transparent flat-bottom black-walled plate to make 3000 cells per well. Incubate overnight at 37° C. in 5% CO2 incubator. Dilute a compound and add it to the wells having the cells, then add cell culture medium to 200 μL per well. Put in CO2 incubator for incubation. After 96 hours, 100 μL of culture medium was removed from each well, 100 μL of CTG was added, and the 96-well plate was placed on a shaker for 10 minutes, and placed in the shade at room temperature for 45 minutes. Data was read out by SoftMax Pro i3X Microplate Reader of MD, analyzed by the software GraphPad Prism 5.0, and S-shaped dose-response curve was drawn, then the EC50 values were calculated.
A general note: Cellular ATP, detected with luciferase, serves as a proxy for viable cell number.

A further experiment has as its system Hep 3B tumor models. The experiment is described as follows: In vivo efficacy test, Hep3B subcutaneous xenograft in nude mice. The note with it: for tumor inhibition rate: gavage, twice a day, Hep3B xenograft, day 16. More on the design: species or system Nu/Nu nude mice. As to the method: Human hepatoma Hep3B cells and cell culture medium (EMEM) were purchased from ATCC. Antibiotics (penicillin, streptomycin) and Tryspin-EDTA were purchased from Gibco. Phosphate buffered saline (PBS) and fetal bovine serum (FBS) were purchased from Hyclone. Matrigel was purchased from Corning. Nu/Nu nude mice 6-8 weeks, female, purchased from Vitalriver.
Human hepatoma Hep3B cells were cultured in monolayer in vitro, and cultured in EMEM with 10% fetal bovine serum, 100 U/mL penicillin and 100 μg/mL streptomycin, 37° C., 5% CO2. Trypsin-EDTA was used twice a week for routine digestion and passage. When cell saturation reached 80%-90%, cells were harvested, counted, and seeded. 0.2 mL of 10×10^6 Hep3B cells were subcutaneously seeded on the right back of each nude mouse (PBS:Matrigel=1:1). Administration was started when the average tumor volume reached 128 mm^3.
The mice were administered by gavage, twice a day. Control group was given pure water. Three treatment groups were administered Compound 4, at the doses of 10 mg/kg, 30 mg/kg, and 60 mg/kg, respectively. Tumors were measured and weighed twice a week. By day 16, the average tumor volume in the control group had reached the humanitarian endpoint (2000 mm^3), and the experiment was terminated.
The data was processed by software such as Excel. […] The tumor inhibition effect was obvious in Hep 3B tumor models.

A further experiment has as its target FGFR4 (Homo sapiens, UniProt P22455). The experiment is described as follows: In vitro biochemical kinase analysis of FGFR4 (HTRF KinEASE-TK). The note with it: HTRF kinase assay. As to the method:
In Vitro Biochemical Kinase Analysis of FGFR4
FGFR4 protein kinase detection kit was purchased from Cisbio (HTRF KinEASE-TK kit). Prepare 1× kinase reaction buffer. Transfer 10 nL of a diluted compound to each well of a reaction plate (784075, Greiner) with an Echo 550, and seal the plate with sealing film. The reaction plate was centrifuged at 1000 g for 1 minute. Prepare 2×FGFR4 using 1× kinase reaction buffer, add 5 μL of kinase to each well of the reaction plate, seal the plate, centrifuge at 1000 g for 30 seconds, and incubate it at room temperature for 10 minutes. Prepare a mixture of 2×TK-substrate-biotin and ATP using 1× kinase reaction buffer, add 5 μL of TK-substrate-biotin/ATP mixture to the reaction plate, seal the plate with sealing film, centrifuge at 1000 g for 30 seconds, and react at room temperature for 40 minutes. Prepare 2×Sa-XL 665 and TK-antibody-Cryptate mixture using HTRF detection buffer, add 10 μL Sa-XL 665 and TK-antibody-Cryptate mixture to each well, centrifuge at 1000 g for 30 seconds, and react at room temperature for 1 hour. Envision 2104 read fluorescence signals at 615 nm (Cryptate) and at 665 nm (XL665). IC50 of the compound was calculated using the GraphPad nonlinear fitting formula.

The next experiment has as its system Hep 3B hepatoma cells. The experiment is described as follows: In vitro cell proliferation assay (CellTiter-Glo, CTG), Hep 3B. The class given is cell-based, human. The note with it: Homo sapiens, Hep3B, 96 h, Hep 3B cells. As to the method:
as §1, §2

FGFR4, sequence (P22455 22-802): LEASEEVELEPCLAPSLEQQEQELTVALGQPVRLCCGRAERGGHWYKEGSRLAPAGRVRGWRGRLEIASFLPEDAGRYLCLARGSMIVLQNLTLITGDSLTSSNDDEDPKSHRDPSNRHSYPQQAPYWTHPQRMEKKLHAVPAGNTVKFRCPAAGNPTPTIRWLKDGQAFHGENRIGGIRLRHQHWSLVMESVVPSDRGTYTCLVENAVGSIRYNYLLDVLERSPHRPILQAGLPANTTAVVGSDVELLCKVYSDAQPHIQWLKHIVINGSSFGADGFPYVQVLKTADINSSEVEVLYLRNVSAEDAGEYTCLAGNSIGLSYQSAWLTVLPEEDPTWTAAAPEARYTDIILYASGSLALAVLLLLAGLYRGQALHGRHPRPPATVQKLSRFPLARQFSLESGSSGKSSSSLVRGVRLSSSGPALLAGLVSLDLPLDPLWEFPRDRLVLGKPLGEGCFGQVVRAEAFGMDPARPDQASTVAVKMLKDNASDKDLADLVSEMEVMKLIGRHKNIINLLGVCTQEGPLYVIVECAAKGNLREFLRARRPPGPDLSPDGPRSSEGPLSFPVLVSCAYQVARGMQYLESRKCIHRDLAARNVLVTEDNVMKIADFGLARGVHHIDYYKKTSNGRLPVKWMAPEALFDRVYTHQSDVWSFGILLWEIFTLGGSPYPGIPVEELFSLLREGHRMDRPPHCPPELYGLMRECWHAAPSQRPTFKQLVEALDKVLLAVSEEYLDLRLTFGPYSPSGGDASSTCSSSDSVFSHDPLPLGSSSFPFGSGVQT

A word on the EC50: it is the concentration needed to bring the measured effect to its halfway point. In general, IC50 refers to the concentration that gives 50% inhibition. As for `COCCNc1cc(NC(=O)N2c3nc(C=O)c(CN4CCN(C)CC4=O)cc3C3(F)CC2C3)ncc1C#N` [Compound 4, N-(5-cyano-4-((2-methoxyethyl)amino)pyridin-2-yl)-4-fluoro-7-formyl-6-((4-methyl-2-oxopiperazin-1-yl)methyl)-3,4-dihydro-2,4-methylene-1,8-naphthyridine-1(2H)-carboxamide], the EC50 came out at 12 nM in the experiment on HuH-7 hepatoma cells and 6.4 nM in the experiment with Hep 3B hepatoma cells. The tumor inhibition rate with Hep 3B tumor models (30 mg/kg) came to 78%; in the experiment with Hep 3B tumor models (60 mg/kg), 97%. The tumor inhibition effect entry in the experiment on Hep 3B tumor models (Hep 3B tumor models, in words) is “obvious”. Further, the IC50 on FGFR4 came out at 0.7 nM.
Take `COCCOCCNc1cc(NC(=O)N2c3nc(C=O)ccc3C3(OC)CC2C3)ncc1C#N` [Compound 22, N-(5-cyano-4-((2-(2-methoxyethoxy)ethyl)amino)pyridin-2-yl)-7-formyl-4-methoxy-3,4-dihydro-2,4-methylene-1,8-naphthyridine-1(2H)-carboxamide]: the EC50 in the experiment with HuH-7 hepatoma cells and in the experiment on Hep 3B hepatoma cells was 125 nM each time. On FGFR4, this molecule yielded an IC50 of 4.7 nM.
With `COC[C@@H](C)Nc1cc(NC(=O)N2c3nc(C=O)c(CN4CCN(C)CC4=O)cc3C3CC2C3)ncc1C#N` [Compound 24], the EC50 in the experiment on HuH-7 hepatoma cells amounted to 1.7 nM; with Hep 3B hepatoma cells, 1.4 nM. For the same molecule, the midpoint of inhibition on FGFR4, the IC50, lay at 0.6 nM.
In the same order, the values of `COCCOc1cc(NC(=O)N2c3nc(C=O)c(CN4CCN(C)CC4=O)cc3C3CC2C3)ncc1C#N` [Compound 25, N-(5-cyano-4-(methoxyethoxy)pyridin-2-yl)-7-formyl-6-((4-methyl-2-oxopiperazin-1-yl)methyl)-3,4-dihydro-2,4-methylene-1,8-naphthyridine-1(2H)-carboxamide] are 25.4 nM, 19.3 nM and 2.5 nM.
As for `COCCNc1cc(NC(=O)N2c3nc(C=O)c(CN4CCOCC4=O)cc3C3CC2C3)ncc1C#N` [Compound 27, N-(5-cyano-4-((2-methoxyethyl)amino)pyridin-2-yl)-7-formyl-6-((3-oxomorpholinyl)methyl)-3,4-dihydro-2,4-methylene-1,8-naphthyridine-1(2H)-carboxamide], the EC50 in the experiment with HuH-7 hepatoma cells is 9.7 nM; in the experiment on Hep 3B hepatoma cells, 6.7 nM. The molecule further registered a concentration for half-maximal inhibition (IC50) against FGFR4 of 1.4 nM.
As for `COCCNc1cc(NC(=O)N2c3nc(C=O)c(CN4CCCCOC4=O)cc3C3CC2C3)ncc1C#N` [Compound 28], the results for the EC50 with HuH-7 hepatoma cells and with Hep 3B hepatoma cells were 6.9 nM and 7.2 nM, respectively. The same molecule registered an IC50 on FGFR4 of 1.1 nM.
For `COCCNc1cc(NC(=O)N2c3nc(C=O)ccc3C3(OCCN(C)C)CC2C3)ncc1C#N` [Compound 29, N-(5-cyano-4-((2-methoxyethyl)amino)pyridin-2-yl)-4-(2-(dimethylamino)ethoxy)-7-formyl-3,4-dihydro-2,4-methylene-1,8-naphthyridine-1(2H)-carboxamide], the results for the concentration giving a half-maximal response (EC50) in the experiment with HuH-7 hepatoma cells and with Hep 3B hepatoma cells were 0.2 nM and 1.2 nM, respectively. On FGFR4, this molecule had a half-maximal inhibitory concentration (IC50) of 1.1 nM.
Taken in the same sequence, the figures for `COCCNc1cc(NC(=O)N2c3nc(C=O)ccc3C3(NC(=O)C4CCN(C)CC4)CC2C3)ncc1C#N` [Compound 31] were 4.5 nM, 5.5 nM and 1.1 nM.
Turning to `COCCNc1cc(NC(=O)N2c3nc(C=O)ccc3C3(NC(=O)c4cnn(C)c4)CC2C3)ncc1C#N` [Compound 32, N-(5-cyano-4-((2-methoxyethyl)amino)pyridin-2-yl)-4-(1-methyl-1H-pyrazole-4-carboxamido)-7-formyl-3,4-dihydro-2,4-methylene-1,8-naphthyridine-1(2H)-carboxamide], the EC50 is 0.7 nM in the experiment on HuH-7 hepatoma cells and 1.7 nM with Hep 3B hepatoma cells. At FGFR4, the IC50 stood at 0.5 nM.
As to `COCCNc1cc(NC(=O)N2c3nc(C=O)ccc3C3(OCCOC)CC2C3)ncc1C#N` [Compound 36, N-(5-cyano-4-((2-methoxyethyl)amino)pyridin-2-yl)-4-(2-methoxyethoxy)-7-formyl-3,4-dihydro-2,4-methylene-1,8-naphthyridine-1(2H)-carboxamide], the figures for the EC50 in the experiment with HuH-7 hepatoma cells and in the experiment on Hep 3B hepatoma cells were 11.8 nM and 8.5 nM, respectively. Besides, the IC50 on FGFR4 turned out to be 2.5 nM.
In the same order, the values of `CCS(=O)(=O)NC12CC(C1)N(C(=O)Nc1cc(NCCOC)c(C#N)cn1)c1nc(C=O)ccc12` [Compound 38, N-(5-cyano-4-((2-methoxyethyl)amino)pyridin-2-yl)-4-ethanesulfonamido-7-formyl-3,4-dihydro-2,4-methylene-1,8-naphthyridine-1(2H)-carboxamide] are 19.2 nM, 9.5 nM and 2.3 nM.
`COCCNc1cc(NC(=O)N2c3nc(C=O)ccc3C3(OCCN4CCOCC4)CC2C3)ncc1C#N` [Compound 39]: the figures for the EC50 in the experiment with HuH-7 hepatoma cells and with Hep 3B hepatoma cells were 10 nM and 7.8 nM, respectively. In addition, the half-inhibitory concentration (IC50) on FGFR4 came to 1.6 nM.
With `COCCNc1cc(NC(=O)N2c3nc(C=O)ccc3C3(NC(=O)C4CCN(C)C4)CC2C3)ncc1C#N` (stereo not drawn) [Compound 40], the EC50 is 39.6 nM with HuH-7 hepatoma cells and 24.9 nM in the experiment on Hep 3B hepatoma cells. This molecule yielded an IC50 at FGFR4 of 3.4 nM.
As for `COCCNc1cc(NC(=O)N2c3nc(C=O)ccc3C3(NC(=O)CN4CCCC4)CC2C3)ncc1C#N` [Compound 41], the concentration for a half-maximal effect (EC50) with HuH-7 hepatoma cells came to 13.3 nM; in the experiment with Hep 3B hepatoma cells, 11.9 nM. In addition, at FGFR4, half-maximal inhibition (IC50) was put at 3.4 nM.
